Source: patent US12385066B2, “Retroviral transduction using poloxamers” (HELMHOLTZ ZENTRUM MUNCHEN—DEUTSCHES FORSCHU[…] GESUNDHEIT …, priority 2012, dated 2025)

Experiments:
HEK293T cells [1] = test: Cell proliferation assay (WST-1), cellular toxicity of adjuvants; format: cell-based, human
Method: In 6-well plates, triplicates of 2×10^5 cells per well were seeded and treated with defined adjuvant concentrations ranging from 1 μg/ml to 1000 μg/ml. After 24 hours incubation (at 37° C. with 5% C02) the medium was exchanged with fresh medium and cells were incubated for additional 48 hours. Cell proliferation was determined with the WST-1 colorimetric cell proliferation assay (Roche), according to manufacturer's instructions. Shortly, cells were trypsinized following 100 μl cell incubation with 10 μl WST-1 substrate (at 37° C. with 5% C02) for 2 hours. The assay was performed in 96-well microtiter plates and absorbance was determined at 490 nm using a TECAN-Infinite microplate reader (TECAN).
From potential adjuvant substances for lentiviral gene delivery we selected five representatives from the class of polycation-like and seven from the class of poloxamer-like chemical substances (Tab. 1). HEK293T cells were co-incubated with defined substance concentration for 24 hours, than medium was changed and cells were incubated for additional 48 hours prior measurements of cell proliferation. To test specific HEK293T growth inhibition by different substances we measured incorporation of WST1 substrate and correlated to control cell population without any substance co-incubation (FIG. 1). […]

HEK293T cells [2] = test: Adjuvant-assisted lentiviral (GFP) gene transfer into HEK293T cells, flow cytometry; format: cell-based, human
Method: HEK293T cells (2×10^5 cells per well) were covered with 1 ml medium containing lentivirus (GP) with or without adjuvants. […] In given case, plates were centrifuged at 1,000 g for 60 min. After 24 hours incubation (at 37° C. with 5% CO2) the supernatant was exchanged with fresh medium and incubated for additional 48 hours. Combined microscopic analysis and documentation was done after 48 hours post infection (HBO 50/AC and AxioCam MRC, Carl Zeiss AG). […] Plates were centrifuged at 800 g for 90 min.
After lentiviral transduction, cells were washed in PBS and resuspended in PBS with 1 μg/mi propidium iodide (Invitrogen). After 10 min incubation on ice, 30,000 events were analyzed for forward/sideward scatter characteristics, green fluorescence light emission at 530 nm and red fluorescence light emission at 610 nm in FACSDiva (BD Biosciences).
HEK293T cells were covered (for 24 hours) with a mixture of LV with specified adjuvant in a maximum tolerable concentration (1000 μg/ml). LV carrying a CopGFP-coding transgene were applied in decreasing MOI from 2.5 to 0.0025. After medium change, cells were cultivated for another 48 hours and measured for green fluorescent light emission by flow cytometry.
HEK293T cells were covered (for 24 hours) with a mixture of LV as used in example 3 with specified adjuvant up to a maximum applied concentration of 5000 μg/ml Synperonic F108. […]

Row | Structure (SMILES) | cell proliferation / toxicity (HEK293T cells [1]; increasing concentrations above 10 μg/ml, FIG. 1a) | cell proliferation / cellular viability (HEK293T cells [1]; 1000 μg/ml, FIG. 1) | transduction efficiency (in words) (HEK293T cells [2]; MOI 2.5, polybrene 10 μg/ml, others 1000 μg/ml, FIG. 2) | transduction/infection compared with polybrene-assisted LV infection (in words) (HEK293T cells [2]; polybrene 10 μg/ml, others 1000 μg/ml and above)
1 | CC(C)CCC[C@@H](C)[C@H]1CC[C@H]2[C@@H]3CC=C4C[C@@H](OC(=O)NCCN(C)C)CC[C@]4(C)[C@H]3CC[C@]12C.Cl [Cholesterylcarbamate, Cholesteryl-3β-N-(dimethyl-amino-ethyl)-carbamate-hydrochloride] | massive reduction in cell proliferation | – | – | –
2 | CCCCCCCC/C=C\CCCCCCCC(=O)OC[C@H](COP(=O)(O)OCCN)OC(=O)CCCCCCC/C=C\CCCCCCCC [PEA, L-α-Phosphatidyl-ethanolamine-dioleoyl] | – | remained non-toxic | low transduction rates | failed to further increase this transduction level
